Experimental data from patent US4309305A, “In vitro removal of actinide (IV) ions” (priority 1979, dated 1982).

Experiments:
[1] = Distribution of ^238 Pu-citrate in Mouse Tissues (actinide-ion sequestering activity, animal studies); type: in vivo; set-up: Liver, distribution of ^238 Pu-citrate (mean) / Skel, distribution of ^238 Pu-citrate (mean) / G.I., distribution of ^238 Pu-citrate (mean) / Kidney, distribution of ^238 Pu-citrate (mean) / Total, distribution of ^238 Pu-citrate: unit not given here
Description: Specifically, animal studies were carried out with compounds 2, 3, 4, and 10.
Distribution of ^238 Pu-Citrate in Mouse Tissues
Age of animals 74 weeks 74 weeks
^(b) Animals injected I.P. (Intraperitoneum)
(§1) Distribution of ^238 Pu-citrate in Mouse Tissues
Age of Animals 68 weeks 68 weeks
^(a) Animals injected I.M. (Intramuscular)
as §1
^(b) Animals injected I.P.
Age of animals 18 weeks 18 weeks
^(a) Animals injected I.M.

animals = assay: Toxicity studies / toxicity to animals; settings: in vivo
[2] = pH-titration of the constituent catechol groups; type: physicochemical; settings: 4 protons, 4 constituent catechol groups
Description: Compound 2. Using method B, precusor 3 (1.0 g, 1.0 mmol) dissolved in CH2 Cl2 (25 ml) was added dropwise (15 min) via an addition funnel to an ice bath cooled, vigorously stirred solution of BBR3 (2 ml, 21 mmol) in CH2 Cl2 solution (25 ml). The ice bath was allowed to warm up to room temperature as the reaction slurry was stirred overnight. Cautious addition of H2 O (20 ml) was followed by an additional 2 hrs stirring to hydrolyze all boron compounds. Crude product was collected by filtration and washed well with H2 O. The pink-tan solid was dissolved in MeOH and precipitated by the addition of Et2 O. Drying at 115° (5-10 microns) overnight gave the demethylated product, compound 2 (0.88 mmol, 88%) as hygroscopic powder which analyzed with two waters of crystallization: m.p.
Compound 3 (1.0 g, 1.2 mmol) was dissolved in 98% H2 SO4 (5 ml), then SOCl2 (5 ml, 55 mmol) was added dropwise over a period of 1 hr with vigorous stirring. The reactants were protected from the atmosphere with a Drierite tube. After stirring overnight, the reaction mixture was poured onto ice. Workup as in method C gave white solid, 1.49 g (1.0 mmol, 85%) which analyzed as compound 4.3 NaCl.H2 O: IR (KBr) identical to that recorded in method A; purity also established by pH-titration giving pKa1 8.12 (4 protons) and pKa2 12.0 (4 protons) for the four constituent catechol groups.
Using precisely the same Method D, compound 7 was converted to compound 8. Thus was obtained hygroscopic white solid, 1.4 g (90%); IR (KBr) 2800-3700 s, 1600 s (>N--CO--), 1475, 1425 m, 1150-1300 s (--SO3 ^-1), 1100, 1045 s (--SO3^-), 620 (--SO3^-); purity also established by pH-titration giving pKa1 7.49 (4 protons) and pKa2 12.1 (4 protons) for the four constituent catechol groups.

[3] = qualitative observation of dissolution of Pu(IV) in the presence of the compound
[4] = I.M., killed 1 day after Pu injection, 18 weeks old
[5] = I.M., killed 2 days after Pu injection, 68 weeks old
[6] = I.P., killed 2 days after Pu injection, 74 weeks old
[7] = I.P., killed 1 day after Pu injection, 13.5 weeks old

## 1,4,8,11-N,N',N'',N'''-Tetra(2,3-dihydroxybenzoyl)tetraazaundecane potassium sulfonate [Compound 10]
[1]; [4]
  Feces, distribution of ^238 Pu-citrate (mean): 2.2
  G.I., distribution of ^238 Pu-citrate (mean): 10.2
  Kidney, distribution of ^238 Pu-citrate (mean): 4.8
  Liver, distribution of ^238 Pu-citrate (mean): 28.8
  Skel, distribution of ^238 Pu-citrate (mean): 12.1
  Skin, distribution of ^238 Pu-citrate (mean): 5.7
  Soft Tis, distribution of ^238 Pu-citrate (mean): 7.1
  Total, distribution of ^238 Pu-citrate: 101.1
  Urine, distribution of ^238 Pu-citrate (mean): 29.2

## O=C(c1cccc(O)c1O)N1CCCN(C(=O)c2cccc(O)c2O)CCCN(C(=O)c2cccc(O)c2O)CCCN(C(=O)c2cccc(O)c2O)CCC1 [Compound 3, 1,5,9,13-N,N',N'',N'''-Tetra(2,3-dihydroxybenzoyl)tetraazacyclohexadecane]
[1]; [5]
  G.I., distribution of ^238 Pu-citrate (mean): 4.4
  Kidney, distribution of ^238 Pu-citrate (mean): 42.1
  Liver, distribution of ^238 Pu-citrate (mean): 23.3
  Skel, distribution of ^238 Pu-citrate (mean): 20.3
  Total, distribution of ^238 Pu-citrate: 101.6
  Urine, Feces (one value printed between both lines), distribution of ^238 Pu-citrate (mean): 11.5
animals
  acute toxicity: substantially acutely non-toxic

## O=C(c1ccc([N+](=O)[O-])c(O)c1O)N1CCCN(C(=O)c2ccc([N+](=O)[O-])c(O)c2O)CCN(C(=O)c2ccc([N+](=O)[O-])c(O)c2O)CCCN(C(=O)c2ccc([N+](=O)[O-])c(O)c2O)CC1 [Compound 2, 1,4,8,11-N,N',N'',N'''-Tetra(2,3-dihydroxy-4-nitrobenzoyl)tetraazacyclotetradecane]
[2]
  pKa1: 5.59
  pKa2: 11.8
[1]; [6]
  Feces, distribution of ^238 Pu-citrate (mean): 5.4
  G.I., distribution of ^238 Pu-citrate (mean): 16.3
  Kidney, distribution of ^238 Pu-citrate (mean): 6.0
  Liver, distribution of ^238 Pu-citrate (mean): 36.6
  Skel, distribution of ^238 Pu-citrate (mean): 7.9
  Skin, distribution of ^238 Pu-citrate (mean): 11.2
  Soft Tis, distribution of ^238 Pu-citrate (mean): 14.8
  Total, distribution of ^238 Pu-citrate: 100
  Urine, distribution of ^238 Pu-citrate (mean): 1.8
animals
  toxicity to animals: toxic to animals

## 1,6,11,16-N,N',N'',N'''-Tetra(2,3-dihydroxybenzoyl)tetraazahexadecane potassium sulfonate [Compound 8]
[2]
  pKa1: 7.49
  pKa2: 12.1

## O=C(c1cccc(O)c1O)N1CCCN(C(=O)c2cccc(O)c2O)CCN(C(=O)c2cccc(O)c2O)CCCN(C(=O)c2cccc(O)c2O)CC1 [Compound 1, 1,4,8,11-N,N',N'',N'''-Tetra(2,3-dihydroxybenzoyl)tetraazacyclotetradecane]
[3]; even at high pH, qualitative
  dissolution of Pu(IV) in presence of compound: Pu(IV) dissolved in the presence of compound 1 even at high pH
[3]; inferred from dissolution of Pu(IV) and Ksp for Pu(OH)4
  formation constant for the Pu(IV) complex: very high formation constant

## 1,5,9,13-N,N',N'',N'''-Tetra(2,3-dihydroxybenzoyl)tetraazacyclohexadecane sodium sulfonate [Compound 4]
[2]
  pKa1: 8.12
  pKa2: 12.0
[1]; [7]
  Feces, distribution of ^238 Pu-citrate (mean): 3.1
  G.I., distribution of ^238 Pu-citrate (mean): 8.2
  Kidney, distribution of ^238 Pu-citrate (mean): 3.9
  Liver, distribution of ^238 Pu-citrate (mean): 24.8
  Skel, distribution of ^238 Pu-citrate (mean): 15.7
  Skin, distribution of ^238 Pu-citrate (mean): 4.1
  Soft Tis, distribution of ^238 Pu-citrate (mean): 6.4
  Total, distribution of ^238 Pu-citrate: 100
  Urine, distribution of ^238 Pu-citrate (mean): 33.8
